Holding throughout (format): functional
Details in all cases: read-out: IZ

The test system of test [1] is Erwinia amylovora. The test can be described thus: Antibacterial activity against Erwinia amylovora at 0.1 ug after 12 hrs by agar diffusion assay.
The subject of test [2] is Erwinia amylovora. The test can be described thus: Antibacterial activity against Erwinia amylovora at 1 ug after 12 hrs by agar diffusion assay. For orientation: In agar diffusion tests the substance spreads into inoculated agar from a disc or well.
In test [3] the test system is Erwinia amylovora. The test is described as follows: Antibacterial activity against Erwinia amylovora at 100 ug after 12 hrs by agar diffusion assay.
Test [4] deals with Erwinia amylovora. The test can be described thus: Antibacterial activity against Erwinia amylovora at 10 ug after 12 hrs by agar diffusion assay.

Structures are written as SMILES.

For `C=C1C[C@@H](C(=O)N[C@H](C(=O)O)C(C)C)NC1=N`, in the test with Erwinia amylovora [1], the zone of inhibition at 0.1 µg/disc is 10 mm. Further, the zone of inhibition at 1 µg/disc with Erwinia amylovora [2] amounted to 19 mm.
Regarding `C=C1C[C@@H](C(=O)N[C@@H](C(=O)O)C(C)C)NC1=N`, the zone of inhibition at 100 µg/disc with Erwinia amylovora [3] was determined as 10 mm.
As for `C=C1C[C@H](C(=O)N[C@H](C(=O)O)C(C)C)NC1=N`, in the test on Erwinia amylovora [2], the zone of inhibition at 1 µg/disc is 6 mm. Also, in the test with Erwinia amylovora [4], the zone of inhibition at 10 µg/disc amounted to 10 mm. In addition, the zone of inhibition at 100 µg/disc in the test on Erwinia amylovora [3] turned out to be 19 mm.
